Experiment [1] relates to Human monocyte-derived macrophages (HMDM). Description: Cytokine release (ELISA) from human monocyte-derived macrophages pre-treated with RL5P. The format is cell-based. The procedure: (§1) FIG. 3 is a graphical representation showing the effect of R5LP treatment of macrophages on the release of cytokines IL-1β and TNF. (A-B) Human monocyte-derived macrophages (HMDM) were pre-treated with ribulose-5-phosphate (RL5P) for 16 h at the indicated concentrations. Nigericin-triggered IL-1β release from LPS-primed cells (A), as well as LPS-induced TNF (B) in culture supernatants were assessed by ELISA. (C-D) BMM were pre-treated for 16 h with RL5P at the indicated concentrations. Nigericin-triggered IL-1β release from LPS-primed cells (C), as well as LPS-induced TNF (D) in culture supernatants were assessed by ELISA. Data were compiled from six independent experiments (or donors) and are presented as mean±S.E.M. Statistical significance was determined using two-way ANOVA followed by Sidak's multiple comparison test (ns—not significant; * p<0.05; ** p<0.01).
(§2) FIG. 4 is a graphical representation showing the effect of R5LP treatment of macrophages on the release of cytokine IL-6. HMDM and BMM were pre-treated with the indicated concentrations of RL5P for 16 h, after which they were either stimulated with LPS (10 ng/mL) or infected with uropathogenic Escherichia coli (UPEC) strain EC958 (MOI 100) for 4 h. Supernatants were then assessed for secreted IL-6 by ELISA. Data were compiled from six independent experiments (or donors) and are presented as mean±SEM. Panel A presents IL-6 release (ng/mL), Panel B present IL-6 release normalized to LPS alone. Statistical significance was determined using repeated measure two-way ANOVA followed by Dunnett's multiple comparison test (A-B) (ns—not significant).
(§3) BMM were generated from indicated strains of mice, as previously described (Das Gupta et al., 2020, Cell Rep. 30:2712-2728.e2718). Bone marrow cells were cultured for 6 days in RPMI-1640 media (Thermo Fisher Scientific) supplemented with 10% FCS, 50 U/mL penicillin, 50 μg/mL streptomycin and 2 mM L-glutamine, in the presence of recombinant human colony-stimulating factor 1 (CSF-1), at either 1×10^4 U/mL (Chiron) or 150 ng/mL (The University of Queensland Protein Expression Facility). On day 6, BMM were harvested and replated at an appropriate density with fresh CSF-1, with cells being used in experiments on the following day. […]
(§4) BMM (5×10^5 cells/mL) or HMDM (5×10^5 cells/mL) were treated as indicated in individual figure legends. Supernatants were collected and assessed for secreted TNF. […] Supernatants were collected and analyzed for levels of IL-1β. […]
(An ELISA detects its analyte on a solid surface through an enzyme-linked reagent.)

In experiment [2] the test system is bone marrow-derived macrophages (BMM). Description: Cytokine release (ELISA) from mouse bone marrow-derived macrophages pre-treated with RL5P. The format is cell-based. On the procedure:
as §1, §2, §3, §4

The subject of experiment [3] is uropathogenic Escherichia coli (UPEC) strain EC958. Briefly: Growth of UPEC strain EC958 with or without H2O2 oxidative stress (OD600, 12 h). The format is cell-based. The procedure: FIG. 5 is a graphical representation showing effect of increasing RL5P concentrations on the growth of uropathogenic Escherichia coli (UPEC) strain EC958 under conditions of oxidative stress in the form of 0.8 mM H2O2. (A) EC958 was cultured±H2O2 (0.8 mM) in the presence of the indicated concentrations of RL5P for 12 h, during which growth was assessed (A600 at the indicated time points); (B) Area under the curve analysis for the 12 h period was calculated thereafter and is presented in FIG. 5B. Data are compiled from four independent experiments and are presented as mean±SEM. Each symbol represents a different experiment. Statistical significance for (B) was determined using repeated measure two-way ANOVA followed by non-parametric Kruskal Wallis test followed by Dunn's multiple comparison test (ns—not significant; * p<0.05; **** p<0.0001).
FIG. 6 is a graphical representation showing effect of increasing RL5P concentrations on the growth of UPEC under conditions of oxidative stress in the form of 1 mM H2O2. (A) EC958 was cultured±H2O2 (1 mM) in the presence of the indicated concentrations of RL5P for 12 h, during which growth was assessed (A600 at the indicated time points); (B) EC958 was cultured in the presence of the indicated concentrations of RL5P and the absence of H2O2 for 12 h, during which growth was assessed (A600 at the indicated time points). Data are compiled from four independent experiments and are presented as mean±SEM.
FIG. 7 is a graphical representation showing the effect of RL5P and 6-phosphogluconate (6PG) on the on the growth of UPEC under conditions of oxidative stress in the form of H202. (A) EC958 was cultured±H2O2 (0.8 mM) in the presence of the indicated concentration of RL5P or 6PG for 12 h, during which growth was assessed (A600 at the indicated time points); (B). Each symbol represents a different experiment. Statistical significance for (B) was determined using repeated measure two-way ANOVA followed by non-parametric Kruskal Wallis test followed by Dunn's multiple comparison test (ns—not significant; * p<0.05; **** p<0.0001).
All bacterial strains were cultured at 37° C. on solid or liquid Luria-Bertani (LB) medium. The non-pathogenic E. coli K12 strain MG1655 (Blattner et al., 1997. Science. 277:1453-1462) and EC958, a representative strain of the globally-disseminated multidrug-resistant ST131 clone isolated from the urine of a patient with a urinary tract infection (Totsika et al., 2011, PloS one. 6:e26578-e26578; Petty et al., 2014, Proc Natl Acad Sci USA. 111:5694-5699), were used in this study. […] Bacterial growth was assessed by monitoring OD600 using a POLARstar Omega (BMG Labtech) at 20-30 min intervals.

Experiment [4] has as its system bone marrow-derived macrophages (BMM). Briefly: Retroviral overexpression of Pgd (6PGD) in BMM, cytokines by ELISA. The format is cell-based, mouse. The procedure: FIG. 2 is a graphical representation showing the effect of over expression of the 6PGD gene on the release of cytokines IL-1β, TNF and IL-6. The Pgd gene was retrovirally overexpressed in BMM. Nigericin-triggered IL-1β release from LPS-primed cells (A), as well as LPS-induced TNF (B) and IL-6 (C), in culture supernatants were assessed by ELISA. Data were compiled from five independent experiments and are presented as mean±S.E.M. Statistical significance was determined using two-way ANOVA followed by Sidak's multiple comparison test (ns—not significant; * p<0.05; ** p<0.01).
Retroviral overexpression of target genes in primary macrophages was performed as previously described (Das Gupta et al., 2020, Cell Rep. 30:2712-2728.e2718). Briefly, 2×10^6 PlatE cells were transfected with 40 μg of the respective retroviral expression vectors using Lipofectamine 2000 (Thermo Fisher Scientific). At 24 h post-transfection, media were replaced and cells were incubated at 32° C. for 48 h for optimal virus production. Viral supernatants were filtered through a […] Millex-HV PVDF syringe filter (Merck) and supplemented with 1M HEPES, 10 μg/mL polybrene and CSF-1. Bone marrow progenitors treated with CSF-1 for 2 days were spin-infected (1000 g, 2 h, 35° C.) with viral supernatants in 6-well non-tissue culture plates. The cells were immediately supplemented with complete RPMI media, then incubated at 37° C. for 48 h. At 48 h post-transduction, cells were supplemented with complete RPMI media. On day 6 of macrophage differentiation, adherent cells were collected and plated for subsequent experiments.
BMM (5×10^5 cells/mL) or HMDM (5×10^5 cells/mL) were treated as indicated in individual figure legends. Supernatants were collected and assessed for secreted TNF. To assess secreted IL-1β by ELISA, cells were further treated with Nigericin for 1 h (2 h for HMDMs). Supernatants were collected and analyzed for levels of IL-1β. For experiments comparing macrophages derived from mice of different genotypes, MTT assays were performed in parallel to control for any differences in plating densities.

Regarding `O=C(CO)[C@H](O)[C@H](O)COP(=O)([O-])[O][Na+]` [RL5P, Disodium [(2R,3R)-2,3,5-trihydroxy-4-oxopentyl]phosphate], the “inducible TNF production (secreted TNF)” value in experiment [1] (HMDM pre-treated with RL5P for 16 h, ELISA) was “dramatically reduced secreted TNF levels”; in experiment [2] (BMM pre-treated with RL5P for 16 h, ELISA), “modest”. The “Nigericin-triggered IL-1β release from LPS-primed cells” value in experiment [1] (HMDM pre-treated with RL5P for 16 h, LPS, ELISA) is “suppressed LPS-inducible IL-1β production”; in experiment [2] (BMM pre-treated with RL5P for 16 h, LPS, ELISA), “suppressed LPS-inducible IL-1β production”. For the same molecule, the “Suppression of IL-1β production in cells responding to Escherichia coli” value is listed as “much less pronounced” in experiment [1] (HMDM, E. coli instead of LPS, effect in HMDM reduced to a lesser extent than in BMM) and “much less pronounced” in experiment [2] (BMM, E. coli instead of LPS). For the same molecule, the “inducible IL-6 production” value in experiment [1] (HMDM, RL5P 16 h, then LPS (10 ng/mL) or UPEC EC958 (MOI 100) 4 h, ELISA) is listed as “did not affect inducible IL-6 production”; in experiment [2] (BMM, RL5P 16 h, then LPS (10 ng/mL) or UPEC EC958 (MOI 100) 4 h, ELISA), “did not affect inducible IL-6 production”. The results for the “UPEC growth under oxidative stress” value in experiment [3] (0.8 mM H2O2) and in experiment [3] (1 mM H2O2) were “significantly impaired E. coli growth in a dose-dependent manner” and “also apparent”, respectively. The “UPEC growth in the absence of oxidative stress” value in experiment [3] (no H2O2) is “did not affect UPEC growth”.

Take `O=C(O)[C@H](O)[C@@H](O)[C@H](O)[C@H](O)COP(=O)(O)O` [6PG, 6-phosphogluconate, reference compound]: in experiment [3] (0.8 mM H2O2), the “UPEC growth under oxidative stress” value is listed as “did not affect UPEC growth”.

B1: 6PGD: 6-phosphogluconate dehydrogenase ectopically expressed; retroviral Pgd overexpression in BMM; in b299 delivered as mRNA in DMONs (protein)
chain: MAQADIALIGLAVMGQNLILNMNDHGFVVCAFNRTVSKVDDFLANEAKGTKVVGAQSLKDMVSKLKKPRRVILLVKAGQAVDDFIEKLVPLLDTGDIIIDGGNSEYRDTTRRCRDLKAKGILFVGSGVSGGEEGARYGPSLMPGGNKEAWPHIKAIFQAIAAKVGTGEPCCDWVGDEGAGHFVKMVHNGIEYGDMQLICEAYHLMKDVLGMRHEEMAQAFEEWNKTELDSFLIEITANILKYRDTDGKELLPKIRDSAGQKGTGKWTAISALEYGMPVTLIGEAVFARCLSSLKEERVQASQKLKGPKVVQLEGSKKSFLEDIRKALYASKIISYAQGFMLLRQAATEFGWTLNYGGIALMWRGGCIIRSVFLGKIKDAFERNPELQNLLLDDFFKSAVDNCQDSWRRVISTGVQAGIPMPCFTTALSFYDGYRHEMLPANLIQAQRDYFGAHTYELLTKPGEFIHTNWTGHGGSVSSSSYNA
notes: 6-phosphogluconate dehydrogenase ectopically expressed; in b299 delivered as mRNA in DMONs
Take B1: in experiment [4], the “LPS-induced IL-6” value is reported as “unaffected” and the “LPS-induced TNF” value is “significantly reduced LPS-induced TNF”. Besides, the “inducible IL-1β response” value in experiment [4] (Nigericin-triggered release from LPS-primed cells) is “attenuated the inducible IL-1β response”.

The values above are taken from patent US20260191937A1, “AGENTS, COMPOSITIONS AND METHODS FOR MODULATING IMMUNITY” (The University of Queensland, priority 2022, published 2026).
